In paper PMC4013357 (The Journal of Veterinary Medical Science, 2013):

Biological target: T1, rBboDHODH (Babesia bovis dihydroorotate dehydrogenase) (Babesia bovis, UniProt A7AUQ8)
T1 sequence (A7AUQ8 1-415): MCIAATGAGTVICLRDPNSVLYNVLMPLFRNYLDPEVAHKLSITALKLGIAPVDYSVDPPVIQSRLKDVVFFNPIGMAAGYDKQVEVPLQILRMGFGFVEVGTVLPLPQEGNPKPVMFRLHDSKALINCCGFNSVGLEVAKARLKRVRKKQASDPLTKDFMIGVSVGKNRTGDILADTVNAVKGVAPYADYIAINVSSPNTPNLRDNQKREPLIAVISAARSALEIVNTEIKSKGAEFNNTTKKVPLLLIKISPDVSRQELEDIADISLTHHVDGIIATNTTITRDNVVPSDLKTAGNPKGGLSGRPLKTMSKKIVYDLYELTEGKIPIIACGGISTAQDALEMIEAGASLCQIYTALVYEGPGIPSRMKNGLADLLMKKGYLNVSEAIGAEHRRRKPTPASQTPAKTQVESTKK
Assay: biochemical
Details: read-out: Relative activity (%)

| Compound | activity at 1 µM [%] | activity at 1000 µM [%] |
| --- | --- | --- |
| O=C1C(O)=C([C@H]2CC[C@H](c3ccc(Cl)cc3)CC2)C(=O)c2ccccc21 [ATV, atovaquone] | 19.1 | – |
| Cc1oncc1C(=O)Nc1ccc(C(F)(F)F)cc1 [LFN, leflunomide] | – | 51.6 |
